Structures can show the parent of a compound that is named as a salt.
Target: T1, human GRIN1 (transcript variant NR1-3) and GRIN2D expressed in Xenopus oocytes (Homo sapiens, UniProt O15399)
T1 construct: GenScript (GRIN2D synthesis) SC115601; host or cells: Xenopus oocytes injected with cRNA (1 GluN1 : 2 GluN2)
Assay: NR2D oocyte potentiation assay (two-electrode voltage clamp)
Format: cell-based
Conditions: 10 uM test compound; glutamate and glycine 10 μM each; holding potential −40 mV
Method: NR2D Oocyte Potentiation Assay. Xenopus oocytes (Xenopus 1, Dexter, Mich.) were initially separated from the lobes of an ovary using surgical forceps; they were then defolliculated by constant agitation at room temperature in OR-2 buffer (82.5 mM NaCl; 2.5 mM KCl; 1 mM MgCl2; 5 mM HEPES; pH 7.4) containing 2 mg/ml collagenase Type 1 (Fisher Scientific, USA) for 1.5-2 hours. The cells were then gently aspirated with a Pasteur pipette to remove the follicular tissue; this was followed by washing three times with OR-2 to remove all traces of collagenase. The oocytes were then washed in ND-96 (96 mM NaCl, 2 mM KCl, 1.8 mM CaCl2, 1 mM MgCl2, 5 mM HEPES, 50 ng/L gentamycin, 100 units/ml penicillin and 100 μg/ml streptomycin; pH 7.6) three times and this was followed by incubation in ND-96 at room temperature with mild agitation for 15 minutes; subsequently they were stored for at least 2 hours at 16° C. before sorting and selection for injection. Oocytes selected for injection were incubated overnight in ND-96 at 16° C.
The human GRIN1 (transcript variant NR1-3 (Origene, SKU #: SC115601, Rockville, Md.) and GRIN2D (NCBI locus NM_000836, sequence optimized and synthesized by GenScript) were linearized and transcribed using the mMessage mMachine kit (Life Technologies) and promoters SP6 (for GluN1) and T7 (for GluN2D). cRNAs were mixed together at a ratio of 1 GluN1:2 GluN2. Each oocyte was injected with 50 nL of cRNA and stored in ND96 (96 mM NaCl, 2 mM KCl, 1.8 mM CaCl2, 1 mM MgCl2, 5 mM HEPES, 50 ng/L gentamycin, 100 units/ml penicillin and 100 μg/ml streptomycin; pH 7.6) at 16° C. for 72 h prior to recording.
Currents were recorded using a two-electrode voltage-clamp amplifier (Oocyte Clamp OC-725C; Warner Instrument Corp, Hamden, Conn.), and digitized using Digidata 1550A and pClamp (v. 10) software (Molecular Devices, Sunnyvale, Calif.). Electrodes were filled with 3 M KCl and had resistances that ranged from 0.2-1 MO. All measurements were made at a holding potential of −40 mV. Cells were continuously perfused with oocyte recording solution containing 90 mM NaCl, 1 mM KCl, 0.5 mM BaCl2, and 10 mM HEPES (Ph 7.4). Glutamate and Glycine (co-agonists) were applied at respective concentrations of 10 μM each. Co-agonists were applied until a plateau was reached, and test compounds were then added in the continued presence of co-agonists until a new plateau was reached. After the addition of the last test compound concentration, the oocyte was washed with oocyte recording buffer. Fraction of current remaining was calculated as [(current in presence of test compound−background current)/(co-agonist current−background current)] and IC50 values were computed using Prism 6.0 (Graphpad).

T1 sequence (O15399 28-1336, other chains not shown): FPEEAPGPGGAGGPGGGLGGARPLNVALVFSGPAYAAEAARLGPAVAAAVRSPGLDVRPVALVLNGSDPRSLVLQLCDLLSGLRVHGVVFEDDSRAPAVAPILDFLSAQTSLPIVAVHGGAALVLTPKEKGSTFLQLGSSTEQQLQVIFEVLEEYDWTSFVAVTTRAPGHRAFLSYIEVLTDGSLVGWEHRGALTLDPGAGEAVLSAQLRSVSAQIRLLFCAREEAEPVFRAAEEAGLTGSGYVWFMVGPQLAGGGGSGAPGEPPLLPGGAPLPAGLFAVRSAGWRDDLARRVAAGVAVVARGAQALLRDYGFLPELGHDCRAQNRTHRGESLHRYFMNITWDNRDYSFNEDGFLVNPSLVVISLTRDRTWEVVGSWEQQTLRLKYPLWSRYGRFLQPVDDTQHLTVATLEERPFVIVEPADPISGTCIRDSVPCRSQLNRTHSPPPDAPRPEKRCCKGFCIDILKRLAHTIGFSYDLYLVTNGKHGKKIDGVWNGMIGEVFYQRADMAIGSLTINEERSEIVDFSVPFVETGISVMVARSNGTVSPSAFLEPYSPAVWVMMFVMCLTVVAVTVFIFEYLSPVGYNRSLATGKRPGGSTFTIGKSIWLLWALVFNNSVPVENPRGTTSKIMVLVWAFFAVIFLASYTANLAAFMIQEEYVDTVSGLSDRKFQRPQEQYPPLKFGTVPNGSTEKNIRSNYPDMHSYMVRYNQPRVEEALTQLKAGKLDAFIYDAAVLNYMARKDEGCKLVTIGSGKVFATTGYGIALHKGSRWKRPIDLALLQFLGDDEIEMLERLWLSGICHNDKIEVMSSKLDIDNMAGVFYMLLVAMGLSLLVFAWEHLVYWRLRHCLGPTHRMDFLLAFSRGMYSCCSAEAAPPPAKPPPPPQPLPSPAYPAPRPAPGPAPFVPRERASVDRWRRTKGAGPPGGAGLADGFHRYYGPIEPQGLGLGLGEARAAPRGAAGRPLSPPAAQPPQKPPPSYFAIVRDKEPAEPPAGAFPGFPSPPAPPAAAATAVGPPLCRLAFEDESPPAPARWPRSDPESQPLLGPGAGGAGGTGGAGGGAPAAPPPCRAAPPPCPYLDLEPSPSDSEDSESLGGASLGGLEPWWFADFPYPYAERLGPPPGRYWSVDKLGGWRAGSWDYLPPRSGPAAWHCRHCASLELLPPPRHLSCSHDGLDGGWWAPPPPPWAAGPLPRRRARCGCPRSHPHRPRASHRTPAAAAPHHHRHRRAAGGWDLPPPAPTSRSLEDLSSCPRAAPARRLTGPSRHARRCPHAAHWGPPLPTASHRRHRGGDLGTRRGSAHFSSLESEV

| SMILES | activation at 10 µM | NR2D Oocyte % Potentiation @ 10 uM |
| --- | --- | --- |
| CC1CSc2nc(-c3ccc(C(C)(C)CF)nc3)c(C#N)c(=O)n2C1 (stereo not drawn) [Example 151, 8-(6-(1-fluoro-2-methylpropan-2-yl)pyridin-3-yl)-3-methyl-6-oxo-3 4-dihydro-2H,6H-pyrimido[2,1-b][1,3]thiazine-7-carbonitrile] | 500 to 1000% | – |
| CC(C)(C)c1ccc(-c2nc3n(c(=O)c2C#N)CC(CN)CS3)cn1 (stereo not drawn) [Example 145, 3-(aminomethyl)-8-(6-(tert-butyl)pyridin-3-yl)-6-oxo-3,4-dihydro-2H,6H-pyrimido[2,1-b][1,3]thiazine-7-carbonitrile hydrochloride] | 10 to 100% | – |
| COC[C@@H]1CSc2nc(-c3cnc(C(C)(C)C)c(F)c3)c(C#N)c(=O)n2C1 [Example 167, (R)-8-(6-(tert-butyl)-5-fluoropyridin-3-yl)-3-(methoxymethyl)-6-oxo-3,4-dihydro-2H,6H-pyrimido[2,1-b][1,3]thiazine-7-carbonitrile] | > 1000% | – |
| CC1CSc2nc(-c3ccc(C(C)(CF)CF)nc3)c(C#N)c(=O)n2C1 (stereo not drawn) [Example 155, 8-(6-(1,3-difluoro-2-methylpropan-2-yl)pyridin-3-yl)-3-methyl-6-oxo-3,4-dihydro-2H,6H-pyrimido[2,1-b][1,3]thiazine-7-carbonitrile] | 100 to 500% | – |
| Cc1csc2nc(-c3ccc(C(C)(C)C)nc3)c(C#N)c(=O)n12 [Example 35, 7-(6-(tert-butyl)pyridin-3-yl)-3-methyl-5-oxo-5H-thiazolo[3,2-a]pyrimidine-6-carbonitrile] | 100 to 500% | – |
| C[C@H]1CSc2nc(-c3ccc(C(C)(C)N(C)C)nc3)c(C#N)c(=O)n2C1 [Example 133, (R)-8-(6-(2-(dimethylamino)propan-2-yl)pyridin-3-yl)-3-methyl-6-oxo-3,4-dihydro-2H,6H-pyrimido[2,1-b][1,3]thiazine-7-carbonitrile] | – | Inhibitor |
| CC(C)(C)c1ncc(-c2nc3n(c(=O)c2C#N)CC(CO)CS3)cn1 (stereo not drawn) [Example 90, 8-(2-(tert-butyl)pyrimidin-5-yl)-3-(hydroxymethyl)-6-oxo-3,4-dihydro-2H,6H-pyrimido[2,1-b][1,3]thiazine-7-carbonitrile] | 500 to 1000% | – |
| CCOC(=O)c1ccc(-c2nc3n(c(=O)c2C#N)CC(C)CS3)cn1 (stereo not drawn) [Example 84, ethyl 5-(7-cyano-3-methyl-6-oxo-3,4-dihydro-2H,6H-pyrimido[2,1-b][1,3]thiazin-8-yl)picolinate] | < 10% | – |
| CC(C)(C)c1ccc(-c2cc3n(c(=O)c2C#N)CCCS3)cn1 [Example 70, 8-(6-(tert-butyl)pyridin-3-yl)-6-oxo-3,4-dihydro-2H,6H-pyrido[2,1-b][1,3]thiazine-7-carbonitrile] | > 1000% | – |
| COCC1CSc2nc(-c3cnc(C(C)(C)C)nc3)c(C#N)c(=O)n2C1 (stereo not drawn) [Example 124, 8-(2-(tert-butyl)pyrimidin-5-yl)-3-(methoxymethyl)-6-oxo-3,4-dihydro-2H,6H-pyrimido[2,1-b][1,3]thiazine-7-carbonitrile] | 500 to 1000% | – |
| Cc1c(-c2ccc(C(C)(C)C)cc2)nc2n(c1=O)CCCS2 [Example 29, 8-(4-(tert-butyl)phenyl)-7-methyl-3,4-dihydro-2H,6H-pyrimido[2,1-b][1,3]thiazin-6-one] | 10 to 100% | – |
| CC(=O)NCC1CSc2nc(-c3cnc(C(C)(C)C)c(F)c3)c(C#N)c(=O)n2C1 (stereo not drawn) [Example 146, N-((8-(6-(tert-butyl)-5-fluoropyridin-3-yl)-7-cyano-6-oxo-3,4-dihydro-2H,6H-pyrimido[2,1-b][1,3]thiazin-3-yl)methyl)acetamide] | > 1000% | – |
| CC(C)(C)c1ncc(-c2nc3n(c(=O)c2C#N)CC(F)CS3)cn1 (stereo not drawn) [Example 17, 8-(2-tert-butylpyrimidin-5-yl)-3-fluoro-6-oxo-2H,3H, 4H,6H-pyrimido [2,1-b][1,3] thiazine-7-carbonitrile] | 100 to 500% | – |
| CC1CSc2nc(-c3ccc(C4(C)COC4)nc3)c(C#N)c(=O)n2C1 (stereo not drawn) [Example 153, 3-methyl-8-(6-(3-methyloxetan-3-yl)pyridin-3-yl)-6-oxo-3,4-dihydro-2H,6H-pyrimido[2,1-b][1,3]thiazine-7-carbonitrile] | 100 to 500% | – |
| CC1(c2ccc(-c3nc4n(c(=O)c3C#N)CCCS4)cn2)CC1(F)F (stereo not drawn) [Example 110, 8-(6-(2,2-difluoro-1-methylcyclopropyl)pyridin-3-yl)-6-oxo-3,4-dihydro-2H,6H-pyrimido[2,1-b][1,3]thiazine-7-carbonitrile] | 500 to 1000% | – |
| CC(C)(C)c1ccc(-c2nc3n(c(=O)c2C#N)CC(CF)CS3)cn1 (stereo not drawn) [Example 88, 8-(6-(tert-butyl)pyridin-3-yl)-3-(fluoromethyl)-6-oxo-3,4-dihydro-2H,6H-pyrimido[2,1-b][1,3]thiazine-7-carbonitrile] | 500 to 1000% | – |
| CCOC(C)(C)c1ccc(-c2nc3n(c(=O)c2C#N)CC(C)CS3)cn1 (stereo not drawn) [Example 121, 8-(6-(2-ethoxypropan-2-yl)pyridin-3-yl)-3-methyl-6-oxo-3,4-dihydro-2H,6H-pyrimido[2,1-b][1,3]thiazine-7-carbonitrile] | – | Inhibitor |
| CN1CCCn2c1nc(-c1ccc(C(C)(C)C)nc1)c(C#N)c2=O [Example 94, 8-(6-(tert-butyl)pyridin-3-yl)-1-methyl-6-oxo-1,3,4,6-tetrahydro-2H-pyrimido[1,2-a]pyrimidine-7-carbonitrile] | 100 to 500% | – |
| CC(C)(C#N)c1ccc(-c2nc3n(c(=O)c2C#N)CCCS3)cn1 [Example 78, 8-(6-(2-cyanopropan-2-yl)pyridin-3-yl)-6-oxo-3,4-dihydro-2H,6H-pyrimido[2,1-b][1,3]thiazine-7-carbonitrile] | 10 to 100% | – |
| CC1CSc2nc(-c3ccc(C4(C)CC4(F)F)nc3)c(C#N)c(=O)n2C1 (stereo not drawn) [Example 111, 8-[6-(2,2-difluoro-1-methyl-cyclopropyl)pyridin-3-yl]-3-methyl-6-oxo-2H,3H,4H,6H-pyimido[2,1-b] [1,3]thiazine-7-carbonitrile] | 500 to 1000% | – |
| CC1CSc2nc(-c3ccc(C4(C(F)(F)F)CC4)cc3)c(C#N)c(=O)n2C1 (stereo not drawn) [Example 46, 3-methyl-6-oxo-8-(4-(1-(trifluoromethyl)cyclopropyl)phenyl)-3,4-dihydro-2H,6H-pyrimido[2,1-b][1,3]thiazine-7-carbonitrile] | 100 to 500% | – |
| C[C@H]1CSc2nc(-c3cnc(C(C)(C)C)nc3)c(C#N)c(=O)n2C1 [Example 73, (R)-8-(2-(tert-butyl)pyrimidin-5-yl)-3-methyl-6-oxo-3,4-dihydro-2H,6H-pyrimido[2,1-b][1,3]thiazine-7-carbonitrile] | > 1000% | – |
| CC(C)(C)c1ncc(-c2nc3n(c(=O)c2C#N)CC(CN2CCCC2)CS3)cc1F (stereo not drawn) [Example 159, 8-(6-(tert-butyl)-5-fluoropyridin-3-yl)-6-oxo-3-(pyrrolidin-1-ylmethyl)-3,4-dihydro-2H,6H-pyrimido[2,1-b][1,3]thiazine-7-carbonitrile] | 10 to 100% | – |
| CC1CSc2cc(-c3ccc(C4(C)CC4)nc3)c(C#N)c(=O)n2C1 (stereo not drawn) [Example 72, 3-methyl-8-(6-(1-methylcyclopropyl)pyridin-3-yl)-6-oxo-3,4-dihydro-2H,6H-pyrido[2,1-b][1,3]thiazine-7-carbonitrile] | > 1000% | – |

Source: US11807650B2, “NMDA receptor modulators and uses thereof” (Novartis AG, priority 2016, dated 2023)
